Our source for the TGI and GI50 values is PubChem BioAssay (NCI).

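Protocol summary: plate cells (96-well), add compound at 5 concentrations, incubate 48 h, interpolate endpoints linearly. At the GI50, growth is halved. TGI denotes the concentration required for complete inhibition of growth.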 Where only a bound is given, the exact number is not on record here.

Common to all, as to test: NCI-60 cell line screen, 48 h
Assay [1] relates to 786-0 renal.
In assay [2] the test system is HCT-116 colon.
Assay [3] relates to HOP-62 NSCLC.
Assay [4] has as its system OVCAR-3 ovarian.
Assay [5] relates to OVCAR-4 ovarian.
Assay [6] has as its system RXF 393 renal.
The test system of assay [7] is SF-295 CNS.
The subject of assay [8] is SK-MEL-5 melanoma.
Assay [9] has as its system A498 renal.

In the case of `C(/C=C/Nc1ccc(-c2ccccc2)cc1)=Nc1ccc(-c2ccccc2)cc1`, the TGI in [1], in assay [2], in assay [3], in [4], in [5] and in assay [6] was more than 100 µM throughout. Moreover, the TGI in assay [7] and in [8] was more than 100 µM throughout.

On to `CCCCCCCCCC[N+](C)(C)C`, for which the GI50 in assay [9] was 1.78 µM; in assay [2] it was 2.34 µM; in assay [3], 1.18 µM; in [4] it was 1.68 µM; in assay [5] it was 2.2 µM; in assay [7], 1.97 µM. The GI50 in assay [8] is 1.73 µM. Besides, the TGI in assay [9] turned out to be 7.81 µM; in [2], 10.5 µM; in [3], 3.07 µM; in assay [4], 5.4 µM; in [5] it was 14.5 µM; in assay [7] it was 5.81 µM. Also, the TGI in assay [8] is 3.26 µM.

As for `COc1ccc(NC(=S)Nc2c(C)n(C)n(-c3ccccc3)c2=O)cc1`, the TGI in assay [1], in assay [9], in [2], in [3], in assay [4] and in [6] was more than 100 µM in each case. For the same compound, the TGI in [7] and in assay [8] was more than 100 µM throughout.

On to `N#Cc1c2ccc([N+](=O)[O-])cc2c(=O)n2c1sc1ccccc12`, for which the TGI is more than 100 µM in assay [1]; 56.4 µM in assay [9]; 38.8 µM in assay [2]; 98.8 µM in assay [5]; more than 100 µM in assay [8].

As for `C=COC(=O)N1C2CCCC(Cl)(C(C)=O)C1CC2` (stereo not given), the TGI in assay [1], in [9], in assay [2], in assay [3], in [4] and in [5] was more than 100 µM in each case. In addition, the TGI in [7] and in [8] was more than 100 µM in each case.

For the compound `CCSc1nc(C)nc2c1sc1nc3ccccc3n12`, the TGI in assay [1], in assay [9], in assay [2], in assay [4], in [5] and in [6] was more than 100 µM in each case. The TGI in [7] and in assay [8] was more than 100 µM in each case.

With `COc1cc2c3cc1Oc1c(OC)c(OC)cc4c1C(Cc1ccc(O)c(c1)-c1cc(ccc1OC)CC3N(C)CC2)N(C)CC4` (stereo not given), the TGI was more than 100 µM in assay [1]; 46.3 µM in assay [9]; more than 100 µM in assay [2]; more than 100 µM in [4]; more than 100 µM in assay [5]; 6.7 µM in [6]. Besides, the TGI in assay [7] is 39.4 µM; in assay [8] it was 40.5 µM.

Consider `COc1ccc2[nH]c3c(C)c4ncccc4c(C)c3c2c1`, for which the TGI in assay [1] was 2.85 µM; in assay [2] it was more than 10 µM; in assay [3], more than 10 µM; in assay [4] it was 9.09 µM; in assay [5], more than 10 µM; in assay [6], 9.39 µM. For the same compound, the TGI in assay [7] is 9.26 µM; in assay [8], more than 10 µM.

With `COc1cc(C2SCC(=O)N2NC(=O)c2ccc(NC(C)=O)cc2OC)ccc1O` (stereo not given), the TGI in [1] was more than 100 µM; in assay [9], more than 100 µM; in assay [2] it was more than 100 µM; in assay [3], 36.7 µM; in assay [4], more than 100 µM; in assay [5] it was more than 100 µM. For the same compound, the TGI in assay [6] was more than 100 µM; in [7] it was 47 µM.

As to `CN(C)c1c(C2CC(O)C(CO)O2)c(=O)c1=O` (stereo not given), the TGI in assay [1], in [9], in assay [2], in [3], in assay [4] and in assay [5] was more than 100 µM throughout. The TGI in assay [7] was more than 100 µM.

`Clc1nc(Nc2nc3ccccc3[nH]2)nc(Cl)c1-c1ccccc1`: the TGI in [1] is 34.6 µM; in [9] it was 60.6 µM; in [2], more than 100 µM; in [5], 32.8 µM; in [6], 35.6 µM; in [7], 46.8 µM. The compound further returned a TGI in assay [8] of 53.5 µM.

As to `CCCCCCC(=O)c1ccc2ccccc2c1O`, the TGI is more than 100 µM in assay [1]; more than 100 µM in [9]; more than 100 µM in assay [2]; more than 100 µM in assay [3]; more than 100 µM in assay [5]; 74.4 µM in assay [6]. The TGI in assay [7] and in assay [8] was more than 100 µM throughout.

As for `CO/N=C(\C(=O)[N-][n+]1cnn(CC(=O)O)c1)c1csc(N)n1`, the TGI in assay [1], in assay [2], in assay [3], in [5] and in assay [8] was more than 10 µM throughout.

With `CCNC1=C(NC(=O)CCl)C(=O)c2ccccc2C1=O`, the TGI is more than 100 µM in assay [1]; 33.7 µM in [2]; 30.2 µM in [3]; 31.5 µM in assay [4]; 30.7 µM in [5]; 30.6 µM in assay [6]. In addition, the TGI in [7] stood at 36.9 µM; in assay [8], 30.3 µM.

On to `CS(=O)(=O)CCC(N)P(=O)(O)O` (stereo not given), for which the TGI in assay [1], in [2], in assay [3], in assay [4], in assay [5] and in assay [7] was more than 100 µM in each case. In assay [8], the TGI was more than 100 µM.

As for `C[C@H](CO)C1=CC(C#C[Si](C)(C)C)N(C(=O)Oc2ccccc2)c2ccccc21` (stereo not given in full), the TGI was 27.2 µM in assay [1]; 22.7 µM in [2]; 19.4 µM in assay [3]; 13.5 µM in [4]; 21.8 µM in assay [5]; 23 µM in assay [6]. Besides, the TGI in assay [7] stood at 14.3 µM; in assay [8], 26.6 µM.
